Reference: patent US20090035364A1, “PARA-SUBSTITUTED 2-ALKOXYPHENOL COMPOUNDS” (priority 2006, published 2009)

What was measured:
[1] = Cooling intensity: panelists taste aqueous solutions, compared with menthol at 2 ppm; assay type: in vivo, human; conditions: tasted by a small group of panelists
[2] = Application in toothpaste: panelist's teeth brushed with toothgel containing the compound; assay type: in vivo, human; conditions: 0.10 g of 10% solution in ethanol in opaque toothgel with peppermint oil and saccharin; after brushing and rinsing
Protocol: The chemicals are mixed in the toothgel, a piece of toothgel is put on a toothbrush and a panelist's teeth are brushed. The mouth is rinsed with water and the water is spat out. […] The cooling perception lasts for 45 minutes.

Structure (SMILES)	melting point	Concentration having a cooling intensity similar to or slightly higher than that of a solution of menthol at 2 ppm [1]	also measured
COc1cc(CNC2c3ccccc3-c3ccccc32)ccc1O [Example 5, 4-((9H-fluoren-9-ylamino)methyl)-2-methoxyphenol]	148 to 150 °C	–	–
CCNC(=O)C1CC(C)CCC1C(C)C (centres unmarked) [N-ethyl p-menthanecarboxamide (WS-3), N-ethyl p-menthanecarboxamide, reference compound]	–	1.5 ppm	–
COc1cc(CNC(c2ccccc2)c2ccccc2)ccc1O [Example 1, 4-((benzhydrylamino)methyl)-2-methoxyphenol]	–	0.5 ppm	–
CCOc1cc(CNC(c2ccccc2)c2ccccc2)ccc1O [Example 6, 4-((benzhydrylamino)methyl)-2-ethoxyphenol]	89 to 91 °C	–	–
CC1CCC(C(C)C)C(O)C1 (centres unmarked) [I-Menthol, reference compound]	–	2.0 ppm	–
COc1cc(COC(c2ccccc2)c2ccccc2)ccc1O [Example 4, 4-((benzhydryloxy)methyl)-2-methoxyphenol]	–	1.0 ppm	Cooling sensation felt by the panelist [2]: intense cooling sensation; Duration of cooling perception [2]: 45 min
